Values of other authors, collected in PMC9262839 (Cancer Discovery, 2022).

B1: amivantamab: EGFR and MET bispecific antibody (antibody, chains of the INN, looked up, V domains shown)
VH: QVQLVESGGGVVQPGRSLRLSCAASGFTFSTYGMHWVRQAPGKGLEWVAVIWDDGSYKYYGDSVKGRFTISRDNSKNTLYLQMNSLRAEDTAVYYCARDGITMVRGVMKDYFDYWGQGTLVTVSS
VL: AIQLTQSPSSLSASVGDRVTITCRASQDISSALVWYQQKPGKAPKLLIYDASSLESGVPSRFSGSESGTDFTLTISSLQPEDFATYYCQQFNSYPLTFGGGTKVEIK
VH2: QVQLVQSGAEVKKPGASVKVSCETSGYTFTSYGISWVRQAPGHGLEWMGWISAYNGYTNYAQKLQGRVTMTTDTSTSTAYMELRSLRSDDTAVYYCARDLRGTNYFDYWGQGTLVTVSS
VL2: DIQMTQSPSSVSASVGDRVTITCRASQGISNWLAWFQHKPGKAPKLLIYAASSLLSGVPSRFSGSGSGTDFTLTISSLQPEDFATYYCQQANSFPITFGQGTRLEIK

Experiments:
[1] = cited from earlier work
[2] = system: NSCLC with EGFRexon20ins; details: cited from earlier work

| Molecule | patients with ≥grade 3 diarrhea [1] | patients with ≥grade 3 treatment-related adverse events [1] | objective response rate (ORR) [2] |
| --- | --- | --- | --- |
| C=CC(=O)Nc1cc(Nc2ncc(C(=O)OC(C)C)c(-c3cn(C)c4ccccc34)n2)c(OC)cc1N(C)CCN(C)C [Mobocertinib] | 21% | around 40% | – |
| B1 | – | – | around 40% |
